The text below walks through data of the METLIN SMRT retention time set (Domingo-Almenara et al. 2019).

SMILES strings stand for the structures.

The series is described as follows: gradient 5% acetonitrile 3 min, to 50% in 2 min, to 85% in 15 min, held 3 min, 100 µL/min. As to conditions: column: Zorbax Extend-C18 2.1 x 50 mm; eluents: water / acetonitrile, 0.1% formic acid. The method, boiled down:
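Retention time was recorded from adduct peaks, which were picked computationally and each inspected manually. Pure standards ran in mixtures of ~100 molecules on HPLC coupled to a quadrupole time-of-flight mass spectrometer, in positive and negative ionization mode, through a Zorbax Extend-C18 column (2.1 × 50 mm, 1.8 μm) at 100 μL/min. Eluents were water and acetonitrile, each with 0.1% formic acid.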
For the compound `Cc1ccc(N2CC(c3noc(-c4ccc(F)cc4)n3)CC2=O)cc1` (stereo not drawn), the RP-LC retention time was 1010 s.
`CCOc1nccnc1N1CCC(N(C)C(=O)Cc2cccnc2)C1` (stereo not drawn) came in with an RP-LC retention time of 630 s.
With `Cc1cc(C)n(-c2ccnc(N3CCC(C(=O)NC4CCCC4)CC3)n2)n1` the figure was 786 s; with `COCCCNC(=O)C1CCCN(c2cnc3nccnc3c2)C1` (stereo not drawn), 602 s; with `C=CCNS(=O)(=O)CCNC(=O)c1ccccc1`, 629 s.
With `CCn1c(=O)sc2cc(S(=O)(=O)N3CCC(C(=O)Nc4ccc(C)cc4C)CC3)ccc21` the figure was 932 s; with `CCN(CC)c1nc2cc(C(=O)OC)ccc2c(=O)n1-c1ccc(C)c(C)c1`, 1270 s.
`COc1cc2c(cc1OC)C(C(=O)N1CCN(c3ccccn3)CC1)C1c3ccccc3CCN1C2=O` (stereo not drawn) showed an RP-LC retention time of 590 s.
`CCNCc1cc(C(C)(C)C)c(O)c(C(C)(C)C)c1` had an RP-LC retention time of 753 s.
With `Cc1ccc2oc(-c3noc(C(=O)NCCN(C)C)n3)c(C)c2c1` the figure was 682 s; with `O=C1CCCN1CCCNc1ccc2nnc(CCC(=O)N3CCN(c4ccccn4)CC3)n2n1`, 557 s; with `CCN(CC)c1ccc(NC(=O)CN2C(=O)C(C)(C)c3ccccc32)c(C)c1`, 630 s.
The compound `CCN(CC)C(=O)c1ccc(-c2nc3cc(NS(=O)(=O)c4ccc(C)cc4)ccc3n2C)cc1` had an RP-LC retention time of 700 s.
With `CCn1cc(S(=O)(=O)Nc2cc(F)ccc2C)c2cccnc21` the figure was 869 s; with `CC(O)(CCc1ccccc1)CNC(=O)C(=O)NCCC1=CCCCC1` (stereo not drawn), 936 s; with `Cn1nc(C(=O)N2CCCC(C(=O)Nc3ccccc3)C2)c2c1CCN(C(=O)Cc1cccs1)C2` (stereo not drawn), 748 s.
In turn, `Cc1ccc(S(=O)(=O)N2CCOCC2)cc1-c1nnc(-c2ccccc2Cl)o1` returned an RP-LC retention time of 951 s.
`O=C(NC1CC1)[C@@H]1C[C@H](Oc2ccccc2)CN1C(=O)CCc1c[nH]c2ccccc12` yielded an RP-LC retention time of 792 s.
Regarding `CCc1ccc(NC(=O)N2CCCC(C)(C(=O)NCc3ccccc3C)C2)cc1` (stereo not drawn), the RP-LC retention time was found to be 1040 s.
With `O=C(CCCc1nc(-c2ccccc2)no1)Nc1nc(-c2ccccc2)cs1` the figure was 1080 s; with `Fc1ccc(-c2nnc(Cc3nc(-c4cccc(Cl)c4)no3)o2)cc1`, 1070 s.
For `CCc1cc(=O)n(CC(=O)NC(C)CCc2ccccc2)c(-c2ccccc2)n1` (stereo not drawn), the RP-LC retention time was determined as 1190 s.
As for `Cn1cccc1C(=O)C(=O)Nc1ccc(Cl)c(C(F)(F)F)c1`, the figure is 1130 s; as for `c1ccc(N2CCN(c3ncnc4scc(-c5cccs5)c34)CC2)cc1`, 1250 s; as for `O=C(c1cc(Cl)ccc1Cl)N1CCN(c2cc(-c3ccccc3)[nH]n2)CC1`, 882 s.
`O=C(c1sc2ncccc2c1-n1cccc1)N1CCN(c2ccccc2Cl)CC1` displayed an RP-LC retention time of 1120 s.
With `Cc1ccc(NC(=O)C2CCN(S(=O)(=O)c3ccc4c(c3)sc(=O)n4C(C)C)CC2)cc1` the figure was 942 s; with `CC(C)CCNC(=O)CCC(=O)N1CCCn2nc(-c3cn(C)c4ccccc34)cc21`, 778 s.
In turn, `COCCCNC(=O)C1CCCN(c2ccc(-c3ccc(C)c(C)c3)nn2)C1` (stereo not drawn) gave an RP-LC retention time of 647 s.
In turn, `CN(Cc1cnc2nc(N)nc(N)c2n1)c1ccc(C(=O)NC(CCC(=O)O)C(=O)O)cc1` (stereo not drawn) returned an RP-LC retention time of 666 s.
As for `O=C(N[C@H]1C[C@@H]2C[C@H]1CN2C(=O)Cc1ccc(OC(F)(F)F)cc1)c1ccccc1`, the figure is 836 s; as for `Cc1ccc(C(=O)NCCc2c[nH]c3ccc(Cl)cc23)cc1-n1nnc2cccnc21`, 903 s; as for `CCc1nc(N2CCC(C(=O)NCc3ccc(OC)c(OC)c3)CC2)c2c(C)scc2n1`, 650 s.
As for `CCn1c(C(=O)N2CCN(c3ccccn3)CC2)cc2c(-c3cccs3)nn(-c3ccccc3)c21`, the figure is 776 s.
With `CCC1CN(C(=O)N2CCC(C(=O)NCCN3CCCCCC3)CC2)c2ccccc2O1` (stereo not drawn) the figure was 660 s; with `CCCN(CC1CC1)C(=O)CCC1CCCN(S(=O)(=O)c2ccc(C)cc2)C1` (stereo not drawn), 1120 s.
`CC(C)(C)CN(C(=O)c1ccc(F)cc1)c1ccncc1`: the RP-LC retention time worked out at 640 s.
As for `CCOC(=O)CNC(=O)N1CCCC1c1cccc(F)c1` (stereo not drawn), the figure is 745 s.
With `CCC(C)C(NC(=O)c1ccsc1)C(=O)Nc1nc2ccccc2[nH]1` (stereo not drawn) the figure was 703 s; with `O=C(c1cnccn1)N1CCCCC1c1nncn1Cc1ccccc1` (stereo not drawn), 637 s; with `CCc1nn2c(CNC(=O)c3cccn3C)c(-c3ccccc3)nc2s1`, 882 s.
Compound `CC(=O)Nc1nc(-c2ccc(S(=O)(=O)Nc3ccc(C)cc3)cc2)cs1` came in with an RP-LC retention time of 854 s.
As for `O=C(NC1CCCCC1)c1ccc(CN2CCN(Cc3ccccc3)C(=O)C2=O)cc1`, the RP-LC retention time came to 787 s.
`CCCCOc1ccc(-c2cc3c(N4CCN(c5ccccn5)CC4)nccn3n2)cc1` yielded an RP-LC retention time of 822 s.
As for `CCC(C)C(NC(=O)CCc1ccccc1OC)C(=O)Nc1nc2ccccc2[nH]1` (stereo not drawn), the figure is 783 s; as for `c1ccc2c(c1)cnc1ccccc12`, 710 s; as for `COc1ccc(NC(=O)N2C[C@@H](F)C[C@H]2C(=O)N2CCCCC2)c(OC)c1`, 687 s.
As for `CCC(=O)N1CC(=O)N(CC)C2(CCOCC2)C1`, the figure is 561 s; as for `Cc1ccc(NC(=O)N2[C@H]3CC[C@@H]2c2cncnc2C3)cc1F`, 738 s; as for `COc1ccccc1C(=O)NC1(C(F)(F)F)C(=O)N(C2CCCCC2)C(C)=C1C(C)=O` (stereo not drawn), 1080 s.
With `CCCOc1ccc(N2CCN(C(=O)c3cc(Cl)ccc3OC)CC2)nn1` the figure was 670 s.
In the case of `CCCNC(=O)C1CCCN(c2nc3ncn(CC(=O)Nc4ccc(C)c(C)c4)c(=O)c3s2)C1` (stereo not drawn), the RP-LC retention time was found to be 715 s.
For the compound `COc1ccc(CSc2nccc3c2ccn3CC(=O)NCc2ccc(OC)c(OC)c2)cc1`, the RP-LC retention time was 681 s.
As for `COc1cc(Cl)c(NC(=O)C(=O)c2ccc[nH]2)c(OC)c1`, the figure is 969 s; as for `Cc1ccc(Sc2nccnc2N2CCCC(C(=O)NC(C)C)C2)cc1` (stereo not drawn), 996 s; as for `COc1ccc(/C=C/c2ccc3c(c2)OCCO3)cc1O`, 868 s.
In turn, `CCCOc1ccc(-c2nnc3sc(-c4ccncc4)nn23)cc1` had an RP-LC retention time of 642 s.
With `Cc1ccc(Cl)cc1NC(=O)N(C)CCO` the figure was 737 s.
With `CC(CCNC(=O)C(C)n1c2ccccc2c2cnn(C)c(=O)c21)N1CCCC1` (stereo not drawn) the figure was 612 s.
In the case of `O=C(Nc1ccc(Oc2ccc(NC(=O)Nc3ccc([N+](=O)[O-])cc3)cc2)cc1)Nc1ccc([N+](=O)[O-])cc1`, the RP-LC retention time came out at 1110 s.
With `CN1CCn2cc(S(=O)(=O)Nc3ccc(C#N)cc3)cc2C1=O` the figure was 662 s; with `O=C(Nc1ccccc1)c1cnc(-c2ccc(F)cc2)nc1-c1ccncc1`, 892 s.
With `O=C(NCc1ccc(F)cc1)C1CCN(S(=O)(=O)c2ccc3[nH]c(=O)sc3c2)CC1` the figure was 742 s.
As for `CN1CCN(CCCNC(=O)c2cc(-c3cccnc3)nc3ccc(Br)cc23)CC1`, the RP-LC retention time worked out at 542 s.
Compound `Cn1c(=O)sc2cc(S(=O)(=O)N3CCC(C(=O)NC4CCCCC4)CC3)ccc21` gave an RP-LC retention time of 822 s.
As for `CC(=O)N1CCC(C(=O)Nc2cccc(OCc3nnc(-c4ccc(Cl)cc4)o3)c2)CC1`, the figure is 762 s; as for `CCC(C)NC(=O)CCc1c(-c2ccc(Br)cc2)nc2ccccn12` (stereo not drawn), 657 s.
With `Cc1c(CC(=O)NC(C)C)c(=O)n2nc(-c3ccccc3)nc2n1C` the figure was 673 s; with `CC(C)Cn1cc(S(=O)(=O)Nc2ccc(F)c(F)c2)c2cccnc21`, 994 s; with `O=C(CC1c2ncccc2C(=O)N1c1ccc(F)cc1)NCc1cc(F)ccc1F` (stereo not drawn), 737 s.
Take `Cc1cccc(OCC(=O)Nc2c(C(=O)N3CCN(c4ccccn4)CC3)oc3ccccc23)c1`: the RP-LC retention time was 800 s.
For the compound `CCc1nnc(-c2coc(S(=O)(=O)N3CCN(C4CCCCC4)CC3)c2)o1`, the RP-LC retention time came out at 628 s.
`CC(=O)N[C@@H]1CN(C(=O)COc2ccc(Cl)cc2)C[C@H]1CO` displayed an RP-LC retention time of 633 s.
As for `Cc1nc(-c2noc(-c3cccc(F)c3)n2)cn1CC(=O)Nc1ccc(F)cc1`, the figure is 874 s.
As for `CCCNC(=O)C1CCCN(c2ccc(SCC(=O)Nc3cccc(CC)c3)nn2)C1` (stereo not drawn), the figure is 733 s.
Take `Cc1nc(-c2ccc(F)cc2)sc1C(=O)N1CCC(CC(=O)N(C)Cc2ccco2)CC1`: the RP-LC retention time came to 890 s.
As for `CC1(C(=O)NCc2ccc(F)cc2)CN(S(C)(=O)=O)CC(=O)N1Cc1ccc(F)cc1` (stereo not drawn), the figure is 841 s.
`N#Cc1ccc(C(=O)N2CCCC2c2nc(-c3ccccc3)n[nH]2)cc1` (stereo not drawn) displayed an RP-LC retention time of 696 s.
